Experimental data taken from patent publication US20240269157A1, “COMPOSITIONS AND METHODS FOR OVERCOMING MICROENVIRONMENT-MEDIATED RESISTANCE VIA E-SELECTIN TARGETING” (GLYCOMIMETICS, INC., priority 2021, published 2024).

Assays:
KG1 cells = experiment: Global DNA methylation (5-mC) ELISA in KG1 cells; conditions: 100 nM 5-AZA, 96 hours (untreated 0.33%)
Procedure: Prior to assessing the effect of 5-AZA on specific gene expression, its effect on global DNA methylation was assessed by specifically measuring levels of 5-methylcytosine (5-mC) in a colorimetric ELISA-like reaction. DNA was isolated from cell pellets using a DNA Isolation Kit for Cells and Tissues (Roche Catalog No. 11 814 770 001). DNA was quantified using a DNA Quantification Assay Kit (BioVision Catalog No. K539-200). Global DNA methylation was measured using the MethylFlash™ Global DNA Methylation (5-mC) ELISA Easy Kit (EpiGentek Catalog No. P-1030).
DNA was isolated and purified from cell pellets and evaluated for 5-mC levels.

[1] = tested on: PDX-AML (Ven/HMA-resistant); experiment: PDX-AML (Ven/HMA-resistant) model, FLT3-ITD, NRAS, GATA2 mutations; format: in vivo, NSG mice
From the text: To evaluate the efficacy of targeting E-selectin with Compound A to selectively eradicate leukemia cells resistant to venetoclax/HMA therapy in the bone marrow niche, an […] PDX-AML model derived from an AML patient harboring FLT3-ITD, NRAS, and GATA2 mutations who initially responded to venetoclax/HMA therapy and then relapsed was employed (FIG. 1). The model reflects the present situation for many elderly AML patients: initial sensitivity, followed by resistance to venetoclax/HMA and relapse.
Patient-derived PDX cells from an AML patient (2.5×10^6 cells/mouse) were transplanted via tail vein into NSG mice. Once AML cells began to engraft, mice were divided into four groups: vehicle treatment only; 40 mg/kg of Compound A; 50 mg/kg venetoclax+5.5 mg/kg 5-azacitidine; and a combination of 40 mg/kg Compound A and 50 mg/kg venetoclax+5.5 mg/kg 5-azacitidine. Drug treatment was performed from day 60 to day 82 post-transplantation.
Leukemia progression and tumor burden were evaluated weekly during the treatment period (for 22 days) by determining the frequency and absolute number of human CD45^+ cells in peripheral blood using flow cytometry analysis. The synergistic effects of the combinatorial treatment on AML-PDX mouse survival were determined by Kaplan-Meier analysis (FIG. 2). […] The median survival of the vehicle control, Compound A, venetoclax/HMA, and combination-treated (Compound A+venetoclax/HMA) groups of mice was 86, 91, 81.5, and 106.5 days, respectively.
At the time when all of the control group of mice were moribund (after 23 days of treatment), 3 mice per group were sacrificed for single cell proteomics (CyTOF) and immunohistochemistry analysis.

human MSC = experiment: CD44 surface expression in MSC exposed to soluble E-selectin; format: cell-based; conditions: MSC in vitro
From the text: To determine if E-selectin has indispensable effects in bone marrow niche component cells, healthy donor derived-mesenchymal stroma cells (MSC) were exposed to increasing concentrations of E-selectin. […] Abrogation of E-selectin binding by Compound A diminished CD44 expression in vitro.

[2] = tested on: patient-derived primary AML xenograft (JAK2 and c-Kit); experiment: PDX model (mutations in JAK2 and c-Kit), LSC retention and CyTOF of BM cells; format: in vivo, mice
From the text: Intra-vital imaging was employed to investigate the effects of Compound B on AML cell motility in the bone marrow of triple reporter mice (Blood: dextran-TRITC; Host T-cells: DsRed; Host myeloid CD11 cells: EYFP) injected with AML cells carrying a turquoise fluorescent protein reporter gene. […] Individual cells were dislodged from the niche and traveled long-distance (FIG. 17C). The combined inhibition of E-selectin and CXCR4 depleted bone marrow vascular niche areas of leukemia cells.
In order to better understand how the augmented AML mobilization improves the efficacy of AML therapy, BM cells from PDX mice treated for 2 weeks with Compound A, Compound B, venetoclax/HMA (Ven/HMA), and their combinations were analyzed by single-cell proteomics (CyTOF). […] However, pharmacological antagonists of E-selectin (Compound A) or E-selectin/CXCR4 (Compound B) protected endothelial cells from Ven/HMA-induced detrimental insults through upregulation of survival signaling cascades, including pAKT, pERK, pMAPK and […] eNOS expression in endothelial cells compared to Ven/HMA treatment alone.

[3] = tested on: HUVECs co-cultured with AML cells; experiment: eNOS phosphorylation in HUVECs co-cultured with AML cells; format: cell-based; set-up: dose or concentration left out as unconfirmed
E-selectin = target: T1, E-selectin (Homo sapiens, UniProt P16581); experiment: Compound A binding to E-selectin (KD)
T1 sequence (P16581 22-610): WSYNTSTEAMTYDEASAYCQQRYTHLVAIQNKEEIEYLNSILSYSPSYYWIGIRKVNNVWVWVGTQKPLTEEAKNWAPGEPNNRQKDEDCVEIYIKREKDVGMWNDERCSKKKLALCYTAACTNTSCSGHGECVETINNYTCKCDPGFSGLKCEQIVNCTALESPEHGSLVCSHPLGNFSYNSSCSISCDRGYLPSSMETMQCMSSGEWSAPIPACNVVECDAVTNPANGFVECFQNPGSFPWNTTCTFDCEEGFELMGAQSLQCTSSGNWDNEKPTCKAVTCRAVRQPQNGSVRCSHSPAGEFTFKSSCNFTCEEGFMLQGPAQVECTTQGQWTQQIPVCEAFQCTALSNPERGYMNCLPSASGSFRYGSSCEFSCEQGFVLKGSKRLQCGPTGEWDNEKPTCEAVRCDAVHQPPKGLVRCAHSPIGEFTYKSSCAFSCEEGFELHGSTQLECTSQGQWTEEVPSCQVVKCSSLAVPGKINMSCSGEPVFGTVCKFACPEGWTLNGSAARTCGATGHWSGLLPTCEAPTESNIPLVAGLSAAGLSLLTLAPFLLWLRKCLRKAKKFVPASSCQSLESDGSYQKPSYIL

[4] = in combination with Ven/HMA, 2 weeks, CyTOF of BM cells

Compound | level of 5-mC (KG1 cells) | median survival ([1]; 40 mg/kg Compound A, 50 mg/kg venetoclax+5.5 mg/kg 5-azacitidine, day 60 to 82) | anti-leukemia efficacy of venetoclax/HMA ([1]; CyTOF, in vivo administration) | leukemia cell infiltration in bone marrow, spleen, lung, and liver ([1]; histology, Compound A only compared to normal control mice) | mobilization of human AML cells ([1]; mouse, in vivo) | CD44 expression (human MSC) | levels of E-selectin ligand, mTOR, pFAK, pRb, cMyc [2, 4] | p21 and cleaved caspase3 [2, 4] | protection of endothelial cells from Ven/HMA-induced detrimental insults ([2]; upregulated pAKT, pERK, pMAPK, decreased eNOS vs Ven/HMA alone) | phosphorylation of the enzyme eNOS [3] | Kd (E-selectin)
Nc1ncn([C@@H]2O[C@H](CO)[C@@H](O)[C@H]2O)c(=O)n1 [5-azacitidine] | 0.12% | – | – | – | – | – | – | – | – | – | –
CCC1CC(C(=O)NCCNC(=O)CCOCCOCCOCCOCCOCCOCCOCCOCCOCCOCCOCCOC)C[C@@H](O[C@@H]2OC(CO)[C@H](O)C(O[C@@H](CC3CCCCC3)C(=O)O)C2NC(C)=O)[C@@H]1OC1O[C@@H](C)[C@H](O)C(O)[C@@H]1O (some centres unmarked) [Compound A] | – | 91 days | enhanced | increased | mobilized | diminished | diminished | increasing | protected | attenuated | ~450 nM
